The source of these data is US11733142B2, “Antimicrobic susceptibility testing using digital microscopy” (Beckman Coulter, Inc., priority 2017, dated 2023).

What is called MIC is the lowest concentration that inhibits growth of the organism.

One experiment deals with E. coli. As to the kind of experiment: Antimicrobic susceptibility testing (AST) by digital microscopy: count sum, area sum, area/count ratio. The format is cell-based. The procedure: FIGS. 7-23 illustrate various features and steps of optimized AST method 101 (FIG. 19). In some versions, system 1 as discussed above may be used to facilitate some or all of the features provided in optimized AST method 101. Optimized AST method 101 includes performing an image analysis cycle 102 repetitively until a MIC is determined. FIG. 8 provides several exemplary digital microscopy parameters for use in optimized AST method 101. Test well 20 is embodied by a “384” style test well, having a clear viewing bottom. The volume of inoculum in test well 20 may be set to 20 microliters to reduce the amount of materials such as bulk diluents required by AST method 101 and/or minimize light artifacts and provide sampling of a consistent number of microbes from the 1:250 dilution of the 0.5 MacFarland inoculum. […] the volume of inoculum in test well 20 generally increases the light artifacts. In some instances, capturing a single vertical plane 103 at 20× objective whereby AST camera 35 is set at 0.33 microns/pixel may be sufficient for sampling the inoculum and ensuring that each individual microbe is recognizable. However, these parameters are configurable and may change as desired by the user or the underlying needs of the system. Capturing three focal sites spaced about 5 microns apart within single vertical plane 103 may also provide a sufficient number of microbes in the sample to count for use in optimized AST method 101. These three focal sites are labeled site 105, site 107, and site 109 in FIG. 8. In an exemplary version of optimized AST method 101, each focal site is approximately 700×700 microns within single vertical plane 103, rather than capturing three sites in three different vertical planes. AST camera 35, optics system 9, and computer 49 are configured to capture an image of each focal site in consecutive time periods, manipulate each of these images, and thereafter use the data derived from these manipulated images to make a MIC determination. Image analysis cycle 102 is generally depicted in FIG. 9 and comprises an image capture step 111, an image enhancement step 113, an image segmentation step 115, and an object counting step 117. Optimized AST method 101 includes performing image analysis cycle 102 repetitively until a MIC is determined. Image analysis cycle 102 utilizes one or more instances of computer 49 and the various elements thereof to perform image capture step 111, image enhancement step 113, image segmentation step 115, and object counting step 117, as well as any sub steps provided therein. Once image segmentation step 115 generates segmented image 143, image segmentation step 115 proceeds to object counting step 117. In object counting step 117, the background and foreground pixels are considered to derive information regarding the number of microbes in the sample, the area occupied by the microbes in the sample, and the ratio between the number of microbes and the area occupied by the microbes. In some versions of object counting step 117, the actual microbe count is compared with an average microbe count to determine if an error occurred within the image capture process. The comparison may incorporate a standard deviation with the average microbe count to generalize the microbe comparison. Object counting step 117 may be configured to derive information regarding the ratio between the total area occupied by all of the microbes in the image and the total count of microbes. This information may be useful by determining whether the microbes are undergoing elongation over time. Elongation is a precursor to death and indicates the concentration of the antimicrobic dilution is negatively affecting the microbes. More specifically, elongation may occur when microbes such as bacteria encounter an effective amount of antibiotic drugs. Once object counting step 117 derives the desired information from segmented image 143, image analysis cycle 102 terminates. […]

In experiment [1] the test system is gram negative bacteria carrying the Klebsiella pneumonia carbapenemase (KPC) resistance mechanism. As to the kind of experiment: Growth pattern combined with fluorogenic pH test (MEU) to detect resistance and predict MIC. In kind it is cell-based. The conditions noted are these: predicted if pH changes in Meropenem well within 1-2 hours and the growth pattern is identified. From the text: The growth pattern information derived from optics system 9 may also be combined with a fluorogenic test measuring a change in pH to detect some mechanisms of resistance in the microbes being tested. As an example, one of the fluorogenic test substrates could be an antimicrobial agent. Degradation of the antimicrobial agent leads to a change in the pH of the medium within two hours after inoculation, and the pH change can be detected with an indicator that changes fluoresces with changes in pH. Combining the information on the growth patterns (cell count, area, and area/count), as described above, along with an indication that the antimicrobial agent has degraded provides a way to quickly ascertain if the microbe is resistant and helps to determine the MIC of the organism.
For example, the antibiotic Meropenem is enzymatically degraded by microbes such as gram negative bacteria carrying the Klebsiella pneumonia carbapenemase (KPC) resistance mechanism. If Meropenem is degraded, the medium drops in pH. The fluorogenic pH indicator, MEU (methyllumbeliferone) will change (decrease) in fluorescence with that change. This change occurs within 1 to 2 hours. […]

Turning to `CO/N=C(\C(=O)N[C@@H]1C(=O)N2C(C(=O)O)=C(CSc3nc(=O)c(=O)[nH]n3C)CS[C@H]12)c1csc(N)n1` [Cax], the “effect on bacteria count” value in the experiment on E. coli (E. coli sample, Cax 0.12 dilution compared with Growth sample (FIG. 20A)) was “no effect”. Besides, the MIC in the experiment with E. coli (E. coli sample, from count sum data (FIG. 20A)) stood at 0.25 µg/mL; in the experiment with E. coli (E. coli, from area/count ratio data, elongation spike (FIG. 20C)), 0.25 µg/mL. The “area/count ratio (elongation spike)” value in the experiment with E. coli (E. coli, Cax 0.25 and higher dilutions (FIG. 20C), No Growth line approximately 4.0) is given as “above 8.0”. Moreover, the “minimum amount of antibiotic to have the desired effect on the area occupied by the bacteria” value in the experiment with E. coli (E. coli, from area sum data (FIG. 20B)) came to 0.25.

Turning to `CO/N=C(\C(=O)N[C@@H]1C(=O)N2C(C(=O)[O-])=C(C[N+]3(C)CCCC3)CS[C@H]12)c1csc(N)n1` [Cefepime], the minimal inhibitory concentration (MIC) in the experiment with E. coli (E. coli sample, bacteria count data at around the 200-minute mark (FIG. 21)) worked out at 0.06 µg/mL; in the experiment with E. coli (E. coli sample, ratio data at around the 120-minute mark (FIG. 22)), 0.06 µg/mL.

With `C[C@@H](O)[C@H]1C(=O)N2C(C(=O)O)=C(S[C@@H]3CN[C@H](C(=O)N(C)C)C3)[C@H](C)[C@H]12` [Meropenem], the minimal inhibitory concentration (MIC) result in experiment [1] is given as “greater than 1 mcg/ml”.

With `CC1(C)S[C@@H]2[C@H](NC(=O)[C@H](N)c3ccccc3)C(=O)N2[C@H]1C(=O)O` [ampicillin], the “growth morphology after exposure” value with E. coli (E. coli exposed to a dilution of ampicillin (FIG. 17) vs free from ampicillin (FIG. 18)) is recorded as “abnormal growth in the form of elongation”.
